# Values of other authors, collected in patent US20060217788A1, “Method of using laser induced injury to activate topical prodrugs” (priority 2004, published 2006).
# Where no end group is shown, it is not given here. The star is where a group is joined. Palmitoyl = CCCCCCCCCCCCCCCC(=O)*
# Assays:
# [1] = test system: MMP-1, -2, -3, -7, -9 and -13
# [2] = test system: wrinkle improvement and photo-aging scores; settings: 3 ppm, clinical studies
# [3] = test system: fibroblast cultures; settings: in vitro
substance,measurement,setting,value
PLGLAARK [fairly broad spectrum peptide substrate cleavable by MMPs],cleavage by MMPs,[1],cleavable
"N-Palmitoyl-Lys-Thr-Thr-Lys-Ser (Palmitoyl-KTTKS) [Pal-KTTKS, pentapeptide conjugated to a 16-carbon fatty acid moiety, from Sederma]",irritation or changes in barrier function,[2],without significant irritation or changes in barrier function
same,wrinkle improvement and reduction of photo-aging scores,[2],comparable to retinoids
"KTTKS [pentapeptide, subfragment of the carboxyl-terminal propeptide of type I collagen]","production of matrix components including collagen I, III and fibronectin",[3],increased production
